BigSolDB 2.1

O=P(O)(CO)c1ccccc1
Settings	solubility (mole fraction)
in 2-butanone, 288.15 K	0.0013
in 2-butanone, 293.16 K	0.0015
in 2-butanone, 298.17 K	0.0017
in 2-butanone, 303.18 K	0.0019
in 2-butanone, 308.14 K	0.0022
in 2-butanone, 313.16 K	0.0024
in 2-butanone, 318.17 K	0.0027
in 2-butanone, 323.16 K	0.0029
in 2-butanone, 328.17 K	0.0033
in 2-butanone, 333.16 K	0.0037
in 2-ethoxyethanol, 293.16 K	0.0461
in 2-ethoxyethanol, 298.17 K	0.0512
in 2-ethoxyethanol, 303.18 K	0.0571
in 2-ethoxyethanol, 308.14 K	0.0638
in 2-ethoxyethanol, 313.16 K	0.0709
in 2-ethoxyethanol, 318.17 K	0.0777
in 2-ethoxyethanol, 323.16 K	0.0849
in 2-ethoxyethanol, 328.16 K	0.0937
in 2-ethoxyethanol, 333.15 K	0.102
in acetone, 288.15 K	0.0013
in acetone, 293.16 K	0.0015
in acetone, 298.17 K	0.0017
in acetone, 303.18 K	0.002
in acetone, 308.14 K	0.0023
in acetone, 313.16 K	0.0026
in acetone, 318.17 K	0.003
in acetone, 323.16 K	0.0035
in benzene, 293.16 K	0.0009
in benzene, 298.17 K	0.0011
in benzene, 303.18 K	0.0013
in benzene, 308.14 K	0.0016
in benzene, 313.16 K	0.0019
in benzene, 318.17 K	0.0022
in benzene, 323.16 K	0.0027
in benzene, 328.16 K	0.0032
in benzene, 333.15 K	0.0037
in cyclohexane, 288.15 K	0.001
in cyclohexane, 293.16 K	0.0011
in cyclohexane, 298.17 K	0.0012
in cyclohexane, 303.18 K	0.0013
in cyclohexane, 308.14 K	0.0014
in cyclohexane, 313.16 K	0.0015
in cyclohexane, 318.17 K	0.0016
in cyclohexane, 323.16 K	0.0017
in cyclohexane, 328.17 K	0.0018
in cyclohexane, 333.16 K	0.0019
in dichloromethane, 293.16 K	0.00061
in dichloromethane, 296.17 K	0.00079
in dichloromethane, 301.13 K	0.00119
in dichloromethane, 303.14 K	0.00143
in dichloromethane, 305.15 K	0.00169
in diethyl ether, 293.16 K	0.00113
in diethyl ether, 296.17 K	0.00138
in diethyl ether, 301.13 K	0.00188
in diethyl ether, 303.14 K	0.00212
in diethyl ether, 305.15 K	0.00238
in toluene, 288.15 K	0.001
in toluene, 293.16 K	0.0011
in toluene, 298.17 K	0.0013
in toluene, 303.18 K	0.0015
in toluene, 308.14 K	0.0018
in toluene, 313.16 K	0.002
in toluene, 318.17 K	0.0023
in toluene, 323.16 K	0.0026
in toluene, 328.17 K	0.0029
in toluene, 333.16 K	0.0033
in water, 307.45 K	0.0099
in water, 317.46 K	0.0206
in water, 327.57 K	0.0424
in water, 338.15 K	0.0966
in water, 342.45 K	0.117
in water, 346.58 K	0.166
in water, 352.8 K	0.247
in water, 357.11 K	0.312

O=P1(O)OCC2(CO1)COP(=O)(O)OC2 (configuration not stated)
Settings	solubility (mole fraction)
in 1,4-dioxane, 293.16 K	0.00025
in 1,4-dioxane, 298.17 K	0.00028
in 1,4-dioxane, 303.16 K	0.00031
in 1,4-dioxane, 308.17 K	0.00035
in 1,4-dioxane, 313.16 K	0.0004
in 1,4-dioxane, 318.18 K	0.00045
in 1,4-dioxane, 323.16 K	0.0005
in 1,4-dioxane, 328.16 K	0.00055
in 1,4-dioxane, 333.17 K	0.0006
in 1,4-dioxane, 338.15 K	0.00066
in 2-butanone, 293.16 K	0.0006
in 2-butanone, 298.17 K	0.0007
in 2-butanone, 303.16 K	0.0008
in 2-butanone, 308.17 K	0.001
in 2-butanone, 313.16 K	0.0011
in 2-butanone, 318.18 K	0.0013
in 2-butanone, 323.16 K	0.0015
in 2-butanone, 328.16 K	0.0016
in 2-butanone, 333.17 K	0.0018
in acetic acid, 293.16 K	0.00017
in acetic acid, 298.17 K	0.00022
in acetic acid, 303.16 K	0.00026
in acetic acid, 308.17 K	0.00032
in acetic acid, 313.16 K	0.0004
in acetic acid, 318.18 K	0.00048
in acetic acid, 323.16 K	0.00057
in acetic acid, 328.16 K	0.00067
in acetic acid, 333.17 K	0.00078
in acetic acid, 338.15 K	0.00092
in acetone, 295.75 K	0.004
in acetone, 297.55 K	0.0041
in acetone, 299.85 K	0.0043
in acetone, 301.45 K	0.0044
in acetone, 303.15 K	0.0045
in acetone, 305.35 K	0.0047
in acetone, 307.95 K	0.0049
in acetone, 309.15 K	0.005
in acetone, 313.35 K	0.0053
in acetone, 317.15 K	0.0057
in acetone, 319.15 K	0.0058
in acetonitrile, 309.35 K	0.0006
in acetonitrile, 311.25 K	0.0007
in acetonitrile, 313.25 K	0.0009
in acetonitrile, 315.45 K	0.001
in acetonitrile, 317.35 K	0.0012
in acetonitrile, 319.55 K	0.0015
in acetonitrile, 321.55 K	0.0017
in acetonitrile, 323.25 K	0.002
in acetonitrile, 325.75 K	0.0025
in acetonitrile, 327.45 K	0.0028
in acetonitrile, 329.45 K	0.0032
in acetonitrile, 331.55 K	0.0038
in benzene, 293.16 K	0.00031
in benzene, 298.17 K	0.00038
in benzene, 303.16 K	0.00047
in benzene, 308.17 K	0.00059
in benzene, 313.16 K	0.0007
in benzene, 318.18 K	0.00088
in benzene, 323.16 K	0.00103
in benzene, 328.16 K	0.00123
in benzene, 333.17 K	0.00146
in benzene, 338.15 K	0.00176
in chloroform, 293.16 K	0.00046
in chloroform, 298.17 K	0.00054
in chloroform, 303.16 K	0.00067
in chloroform, 308.17 K	0.00081
in chloroform, 313.16 K	0.00094
in chloroform, 318.18 K	0.00114
in chloroform, 323.16 K	0.00137
in chloroform, 328.16 K	0.00163
in chloroform, 333.17 K	0.00192
in chloroform, 338.15 K	0.00222
in cyclohexane, 293.16 K	0.00016
in cyclohexane, 298.17 K	0.00019
in cyclohexane, 303.16 K	0.00022
in cyclohexane, 308.17 K	0.00025
in cyclohexane, 313.16 K	0.00028
in cyclohexane, 318.18 K	0.00032
in cyclohexane, 323.16 K	0.00037
in cyclohexane, 328.16 K	0.00041
in cyclohexane, 333.15 K	0.00046
in cyclohexane, 338.15 K	0.00052
in dichloromethane, 291.16 K	0.00027
in dichloromethane, 295.18 K	0.00032
in dichloromethane, 299.16 K	0.00037
in dichloromethane, 303.19 K	0.00045
in dichloromethane, 305.2 K	0.00048
in dichloromethane, 309.15 K	0.00056
in diethyl ether, 291.16 K	0.00053
in diethyl ether, 295.18 K	0.00073
in diethyl ether, 299.16 K	0.00096
in diethyl ether, 303.19 K	0.00124
in diethyl ether, 305.2 K	0.0014
in ethyl acetate, 293.16 K	0.00078
in ethyl acetate, 298.17 K	0.00092
in ethyl acetate, 303.16 K	0.00109
in ethyl acetate, 308.17 K	0.00129
in ethyl acetate, 313.16 K	0.00152
in ethyl acetate, 318.18 K	0.00177
in ethyl acetate, 323.16 K	0.00204
in ethyl acetate, 328.16 K	0.00229
in ethyl acetate, 333.17 K	0.00271
in ethyl acetate, 338.15 K	0.00315
in toluene, 293.16 K	0.00046
in toluene, 298.17 K	0.00059
in toluene, 303.16 K	0.00071
in toluene, 308.17 K	0.00086
in toluene, 313.16 K	0.00104
in toluene, 318.18 K	0.00122
in toluene, 323.16 K	0.00146
in toluene, 328.16 K	0.00176
in toluene, 333.17 K	0.00209
in toluene, 338.15 K	0.00248
